The target of experiment [1] is T1, human CB1 receptor (Homo sapiens, UniProt P21554).
T1 construct: expressed in transfected cells; host or cells: SK-N-MC cells, stably transfected with pcDNA3 CB-1 (human); semi-purified membrane pellet
In words: Binding assay for CB1 agonists or inverse agonists ([3H]-CP-55,940 displacement, SK-N-MC membranes). As for the experimental part: (§1) The human CB1 and CB2 receptors were stably expressed in SK-N-MC cells transfected with pcDNA3 CB-1 (human) or pcDNA3 CB-2 (human). The cells were grown in T-180 cell culture flasks under standard cell culture conditions at 37° C. in a 5% CO2 atmosphere. The cells were harvested by trysinization and homogenized in a homogenization buffer (10 mM Tris, 0.2 mM MgCl2, 5 mM KCl, with protease inhibitors aprotinin, leupeptin, pepstatin A and bacitracin) and centrifuged (2000 g). The supernatant was then centrifuged in 2M sucrose (31,300 g) to produce a semi-purified membrane pellet. The pellet was resuspended in homogenization and stored at −80° C.
(§2) On the day of the assay, the pellet was thawed on ice and diluted in assay buffer (50 mM Tris-HCl, 5 mM MgCl2, 2.5 mM EDTA, 0.5 mg/mL fatty acid free bovine serum albumin, pH 7.5). […] The plate was covered and incubated for 90 minutes at 30° C. The contents were then aspirated onto a Packard Unifilter GF/C filter bottom plate prewet with 0.5% polyethyleneimine. The wells of the polypropylene plate were rinsed and aspirated seven times with a 0.9% saline-0.5% Tween 20 solution. The Unifilter plate was dried, a scintillation cocktail was added to each well and the counts representing binding were quantitated in a TopCount scintillation counter.
(§3) For compounds tested, an IC50 binding value was obtained from percent inhibition studies in which various test concentrations were used. The binding value was calculated by linear regression.

The target of a further experiment is T2, human CB2 receptor (Homo sapiens, UniProt P34972).
T2 construct: expressed in transfected cells; host or cells: SK-N-MC cells, stably transfected with pcDNA3 CB-2 (human); semi-purified membrane pellet
In words: Binding assay for CB2 agonists or inverse agonists ([3H]-CP-55,940 displacement, SK-N-MC membranes). As for the experimental part:
as §1, §2, §3

Experiment [2] concerns the target T1, human CB1 receptor. In words: Functional cell-based assay, CB1 receptor mediated change in CRE β-gal expression (adenylate cyclase activity). To be noted: for CB1 Receptor Functional Activity (change in functional activity): one compound concentration, vehicle treated cell = 100%. From the text: The CB1 and CB2 receptors are G-protein coupled receptors (GPCR), which influence cell function via the Gi-protein. These receptors modulate the activity of intracellular adenylate cyclase, which in turn produces the intracellular signal messenger cyclic-AMP (cAMP).
At baseline, or during non-ligand bound conditions, these receptors are constitutively active and tonically suppress adenylate cyclase activity. The binding of an agonist causes further receptor activation and produces additional suppression of adenylate cyclase activity. The binding of an inverse agonist inhibits the constitutive activity of the receptors and results in an increase in adenylate cyclase activity.
Test compounds were evaluated in SK-N-MC cells which, using standard transfection procedures, were stably transfected with human cDNA for pcDNA3-CRE β-gal and pcDNA3 CB1 receptor (human) or pcDNA3 CB2 receptor (human). By expressing CRE β-gal, the cells produced β-galactosidase in response to CRE promoter activation by cAMP. Cells expressing CRE β-gal and either the human CB1 or CB2 receptor will produce less β-galactosidase when treated with a CB1/CB2 agonist and will produce more β-galactosidase when treated with a CB1/CB2 inverse agonist.
The cells were grown in 96-well plates under standard cell culture conditions at 37° C. in a 5% CO2 atmosphere. After 3 days, the media was removed and a test compound in media (wherein the media was supplemented with 2 mM L-glutamine, […] sodium pyruvate, 0.1% low fatty acid FBS (fetal bovine serum) and antibiotics) was added to the cell. The plates were incubated for 30 minutes at 37° C. and the plate cells were then treated with forskolin over a 4-6 hour period, then washed and lysed. The β-galactosidase activity was quantitated using commercially available kit reagents (Promega Corp. Madison, Wis.) and a Vmax Plate Reader (Molecular Devices, Inc).
The change in β-galactosidase activity was determined by setting a vehicle treated cell's activity value at 100% and expressing the β-galactosidase activity measured in a corresponding compound treated cell as a percent of the vehicle treated cell activity.
The EC50 value for functional activity for compounds tested was calculated by linear regression and was obtained from studies in which varying compound concentrations were used.
Where an EC50 value was not obtained for a test compound, the value shown (in %) represents change in functional activity and was obtained from a study in which one compound concentration was used.

Setting [3] is: read-out: CB1 receptor binding percent inhibition.
Where [4] appears, read: read-out: CB2 receptor binding percent inhibition.
[5] abbreviates: test concentration 0.25 μM (footnote 3), read-out: CB1 receptor binding percent inhibition.
The mark [6] stands for this setting: test concentration 0.25 μM (footnote 3), read-out: CB2 receptor binding percent inhibition.
[7] abbreviates: CB1 Receptor Functional Inverse Agonist EC50, SK-N-MC cells, CRE β-gal, forskolin.

Several values for one entry are separate records, joined by “and”; a condition that tells them apart may be missing. Identical values can stand only once. Like-named read-outs stand apart in the source and are kept apart here.

T1 sequence (P21554 whole entry): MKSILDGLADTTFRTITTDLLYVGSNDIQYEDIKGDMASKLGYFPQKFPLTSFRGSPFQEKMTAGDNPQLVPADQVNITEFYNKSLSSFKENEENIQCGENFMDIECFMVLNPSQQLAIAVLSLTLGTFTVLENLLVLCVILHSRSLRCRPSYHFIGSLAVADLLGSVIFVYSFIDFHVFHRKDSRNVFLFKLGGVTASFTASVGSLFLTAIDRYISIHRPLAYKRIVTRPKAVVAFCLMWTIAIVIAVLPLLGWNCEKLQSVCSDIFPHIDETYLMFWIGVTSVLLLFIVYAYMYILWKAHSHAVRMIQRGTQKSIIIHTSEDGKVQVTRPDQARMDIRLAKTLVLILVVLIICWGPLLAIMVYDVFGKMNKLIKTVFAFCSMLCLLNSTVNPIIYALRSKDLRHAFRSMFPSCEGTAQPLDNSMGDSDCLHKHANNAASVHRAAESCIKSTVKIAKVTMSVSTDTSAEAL
T2 sequence (P34972 whole entry): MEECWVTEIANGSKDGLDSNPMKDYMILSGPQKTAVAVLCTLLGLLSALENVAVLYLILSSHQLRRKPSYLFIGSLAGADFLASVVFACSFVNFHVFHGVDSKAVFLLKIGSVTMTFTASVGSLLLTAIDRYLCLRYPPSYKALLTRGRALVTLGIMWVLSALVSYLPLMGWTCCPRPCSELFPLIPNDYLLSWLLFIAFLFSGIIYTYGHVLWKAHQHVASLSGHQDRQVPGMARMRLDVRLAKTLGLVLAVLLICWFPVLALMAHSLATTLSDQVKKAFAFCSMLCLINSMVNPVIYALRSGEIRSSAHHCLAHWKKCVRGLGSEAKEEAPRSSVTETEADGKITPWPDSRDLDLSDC

For the compound `C[C@H](NS(=O)(=O)/C=C/c1nn(-c2ccc(F)cc2F)c2c1CCC2Cc1cccc(F)c1)c1ccccc1` (stereo partly drawn) [Cpd 1, (2E)-2-[1-(2,4-difluoro-phenyl)-6-(3-fluoro-benzyl)-1,4,5,6-tetrahydro-cyclopentapyrazol-3-yl]-ethenesulfonic acid [(1S)-1-phenyl-ethyl]-amide], the inhibition at 0.25 µM at human CB1 receptor [1] (setting [3]) amounted to 5%; at human CB2 receptor (setting [4]), 14%. For the same compound, the EC50 on human CB1 receptor [2] (CB1 receptor functional agonist EC50, SK-N-MC cells, CRE β-gal, functional agonist) came out at 40 nM.

For `O=S(=O)(/C=C/c1nn(-c2ccc(F)cc2F)c2c1CCC2Cc1cccc(F)c1)NN1CCOCC1` (stereo not shown) [Cpd 2, (2E)-2-[1-(2,4-difluoro-phenyl)-6-(3-fluoro-benzyl)-1,4,5,6-tetrahydro-cyclopentapyrazol-3-yl]-ethenesulfonic acid morpholin-4-ylamide], the values for the inhibition at 0.25 µM at human CB1 receptor [1] (setting [5]) and on human CB2 receptor (setting [6]) were 0% and 21%, respectively. The “CB1 Receptor Functional Activity (change in functional activity)” value at human CB1 receptor [2] came to 58%.

In the case of `O=S(=O)(/C=C/c1nn(-c2ccc(F)cc2F)c2c1CCC2Cc1cccc(F)c1)NN1CCCCC1` (stereo not shown) [Cpd 3, (2E)-2-[1-(2,4-difluoro-phenyl)-6-(3-fluoro-benzyl)-1,4,5,6-tetrahydro-cyclopentapyrazol-3-yl]-ethenesulfonic acid piperidin-1-ylamide], the inhibition at 0.25 µM at human CB1 receptor [1] (setting [5]) turned out to be 22%; at human CB2 receptor (setting [6]), 0%. This compound yielded an EC50 on human CB1 receptor [2] of 5600 nM.

For the compound `C[C@@H](NS(=O)(=O)/C=C/c1nn(-c2ccc(F)cc2F)c2c1CCC2Cc1cccc(F)c1)c1ccccc1` (stereo partly drawn) [Cpd 4, (2E)-2-[1-(2,4-difluoro-phenyl)-6-(3-fluoro-benzyl)-1,4,5,6-tetrahydro-cyclopentapyrazol-3-yl]-ethenesulfonic acid [(1R)-1-phenyl-ethyl]-amide], the inhibition at 0.25 µM on human CB1 receptor [1] (setting [3]) is 24%; on human CB2 receptor (setting [4]) it was 17%. Moreover, the “CB1 Receptor Functional Activity (change in functional activity)” value at human CB1 receptor [2] came to 34%.

Regarding `C[C@@H](NS(=O)(=O)/C=C/c1nn(-c2ccc(F)cc2F)c2c1CCC2Cc1cccc(F)c1)C1CCCCC1` (stereo partly drawn) [Cpd 5, (2E)-2-[1-(2,4-difluoro-phenyl)-6-(3-fluoro-benzyl)-1,4,5,6-tetrahydro-cyclopentapyrazol-3-yl]-ethenesulfonic acid [(1R)-1-cyclohexyl-ethyl]-amide], the inhibition at 0.25 µM on human CB1 receptor [1] (setting [5]) worked out at 44%; at human CB2 receptor (setting [6]), 4%. On human CB1 receptor [2] (setting [7]), this compound came in with an EC50 of 200 nM.

Consider `O=C(NN1CCCCC1)c1nn(-c2ccc(F)cc2F)c2c1CCC2Cc1cccc(F)c1` (stereo not shown) [Cpd 6, 1-(2,4-difluoro-phenyl)-6-(3-fluoro-benzyl)-1,4,5,6-tetrahydro-cyclopentapyrazole-3-carboxylic acid piperidin-1-ylamide], for which the results for the inhibition at 0.25 µM on human CB1 receptor [1] (setting [5]) and at human CB2 receptor (setting [6]) were 4% and 12%, respectively. Also, the concentration for a half-maximal effect (EC50) on human CB1 receptor [2] came to 200 nM.

Regarding `O=C(c1nn(-c2ccc(F)cc2F)c2c1CCC2Cc1cccc(F)c1)N1CCCCC1` (stereo not shown) [Cpd 8, [1-(2,4-difluoro-phenyl)-6-(3-fluoro-benzyl)-1,4,5,6-tetrahydro-cyclopentapyrazol-3-yl]-piperidin-1-yl-methanone], the figures for the inhibition at 0.25 µM on human CB1 receptor [1] (setting [5]) and on human CB2 receptor (setting [6]) were 6% and 0%, respectively. In addition, on human CB1 receptor [2], the “CB1 Receptor Functional Activity (change in functional activity)” value came to 21%.

On to `CCOC(=O)[C@H]1C2CCC(C2)[C@H]1NC(=O)c1nn(-c2ccc(F)cc2F)c2c1CCC2Cc1cccc(F)c1` (stereo partly drawn) [Cpd 13, (2S,3R)-3-{[1-(2,4-difluoro-phenyl)-6-(3-fluoro-benzyl)-1,4,5,6-tetrahydro-cyclopentapyrazole-3-carbonyl]-amino}-bicyclo[2.2.1]heptane-2-carboxylic acid ethyl ester], for which the figures for the inhibition at 0.25 µM on human CB1 receptor [1] (setting [5]) and at human CB2 receptor (setting [6]) were 58% and 44%, respectively. In addition, at human CB1 receptor [2], the “CB1 Receptor Functional Activity (change in functional activity)” value came to 24%.

As for `COC(=O)[C@@H](Cc1ccc(F)cc1)NC(=O)c1nn(-c2ccc(F)cc2F)c2c1CCC2Cc1cccc(F)c1` (stereo partly drawn) [Cpd 14, (2R)-2-{[1-(2,4-difluoro-phenyl)-6-(3-fluoro-benzyl)-1,4,5,6-tetrahydro-cyclopentapyrazole-3-carbonyl]-amino}-3-(4-fluoro-phenyl)-propionic acid methyl ester], the figures for the inhibition at 0.25 µM at human CB1 receptor [1] (setting [5]) and at human CB2 receptor (setting [6]) were 50% and 30%, respectively. Further, at human CB1 receptor [2], the “CB1 Receptor Functional Activity (change in functional activity)” value is recorded as 48%.

For `COC(=O)[C@@H](Cc1ccc(O)cc1)NC(=O)c1nn(-c2ccc(F)cc2F)c2c1CCC2Cc1cccc(F)c1` (stereo partly drawn) [Cpd 15, (2R)-2-{[1-(2,4-difluoro-phenyl)-6-(3-fluoro-benzyl)-1,4,5,6-tetrahydro-cyclopentapyrazole-3-carbonyl]-amino}-3-(4-hydroxy-phenyl)-propionic acid methyl ester], the inhibition at 0.25 µM is 54% on human CB1 receptor [1] (setting [5]) and 50% at human CB2 receptor (setting [6]). Also, the “CB1 Receptor Functional Activity (change in functional activity)” value on human CB1 receptor [2] is −15%.

As to `O=C(NCc1ccccc1)c1nn(-c2ccc(F)cc2F)c2c1CCC2Cc1cccc(F)c1` (stereo not shown) [Cpd 16, 1-(2,4-difluoro-phenyl)-6-(3-fluoro-benzyl)-1,4,5,6-tetrahydro-cyclopentapyrazole-3-carboxylic acid benzylamide], the inhibition at 0.25 µM at human CB1 receptor [1] (setting [3]) turned out to be 26%; at human CB2 receptor (setting [6]), 0%. Also, the midpoint of the response at human CB1 receptor [2] (setting [7]), the EC50, lay at 400 nM.

In the case of `O=C(c1nn(-c2ccc(F)cc2F)c2c1CCC2Cc1cccc(F)c1)N1CCN(c2ccccc2)CC1` (stereo not shown) [Cpd 17, [1-(2,4-difluoro-phenyl)-6-(3-fluoro-benzyl)-1,4,5,6-tetrahydro-cyclopentapyrazol-3-yl]-(4-phenyl-piperazin-1-yl)-methanone], the inhibition at 1 µM on human CB1 receptor [1] (setting [3]) was found to be 35%. Moreover, the EC50 at human CB1 receptor [2] (setting [7]) is 400 nM and 100 nM.

Consider `C[C@H](NC(=O)c1nn(-c2ccc(F)cc2F)c2c1CCC2Cc1cccc(F)c1)c1ccccc1` (stereo partly drawn) [Cpd 18, 1-(2,4-difluoro-phenyl)-6-(3-fluoro-benzyl)-1,4,5,6-tetrahydro-cyclopentapyrazole-3-carboxylic acid [(1S)-1-phenyl-ethyl]-amide], for which the inhibition at 0.25 µM amounted to 66% on human CB1 receptor [1] (setting [5]) and 19% at human CB2 receptor (setting [6]). For the same compound, on human CB1 receptor [2], the midpoint of the response, the EC50, lay at 10000 nM.

Take `O=C(N[C@H](CCl)Cc1ccccc1)c1nn(-c2ccc(F)cc2F)c2c1CCC2Cc1cccc(F)c1` (stereo partly drawn) [Cpd 27, 1-(2,4-difluoro-phenyl)-6-(3-fluoro-benzyl)-1,4,5,6-tetrahydro-cyclopentapyrazole-3-carboxylic acid [(1S)-1-benzyl-2-chloro-ethyl]-amide]: the inhibition at 0.2 µM was 14% at human CB1 receptor [1] (test concentration 0.2 μM (footnote 2), read-out: CB1 receptor binding percent inhibition) and 22% at human CB2 receptor (test concentration 0.2 μM (footnote 2), read-out: CB2 receptor binding percent inhibition).

Compound `O=C(NN1CCCCC1)c1nn(-c2ccc(Cl)cc2Cl)c2c1CC/C2=C\c1ccc(F)cc1` [Cpd 28, (6E)-1-(2,4-dichloro-phenyl)-6-(4-fluoro-benzylidene)-1,4,5,6-tetrahydro-cyclopentapyrazole-3-carboxylic acid piperidin-1-ylamide] yielded an IC50 at human CB1 receptor [1] of 60 nM. Further, on human CB1 receptor [1] (0.2 µM), the “CB1 receptor binding percent inhibition” value is 0.06, ^(2) 68%. The “CB2 receptor binding percent inhibition” value on human CB2 receptor (test concentration 0.2 μM (footnote 2)) is given as “^(2) 4%”.

(Values after patent US8119621B2, “Tetrahydro-cyclopentyl pyrazole cannabinoid modulators” (Janssen Pharmaceutica N.V., priority 2005, dated 2012).)
